A value given as a limit tells only on which side of the number the result lay.

Series [1] in a line: In vitro inhibition of ADP-induced platelet aggregation in human platelet rich plasma. Format: functional, cell-free.
A further series is filed under the species Rattus norvegicus. The series can be described thus: In vitro inhibition of ADP-induced platelet aggregation in rat platelet rich plasma. Format: functional.
Series [2] can be described thus: Percent oral bioavailability of the drug after intravenous administration at 0.032 mg/kg in dog. Format: ADME, organism-based, Canis lupus familiaris. Conditions: in vivo, read-out: Ba.
The nature of series [3]: Maximum (peak) plasma drug concentration after peroral administration at a dose of 0.032 mg/kg in dog. Format: ADME, organism-based, Canis lupus familiaris. Conditions: po. Details: dose 0.032 mg/kg, route oral.
The species named for the next series is Canis familiaris. The series can be described thus: In vitro inhibition of ADP-induced platelet aggregation in dog platelet rich plasma. Format: functional. Conditions: Canis lupus familiaris.
Series [4] is described as follows: In vitro inhibition of ADP-induced platelet aggregation in monkey platelet rich plasma. Format: functional. Particulars: Cercopithecidae.
Series [5] in a line: Total body clearance of drug from the plasma after intravenous administration at 3.2 mg/kg in rat. Format: ADME, organism-based. Details: dose 3.2 mg/kg, route intravenous. Particulars: read-out: CLtot.
A short description of series [6]: Percent oral bioavailability after intravenous administration at 3.2 mg/kg in rat. Format: ADME, organism-based. Particulars: in vivo, read-out: Ba.
Series [7] is described as follows: Maximum (peak) plasma drug concentration after peroral administration at a dose of 3.2 mg/kg in rat (n=3). Format: ADME, organism-based. On the set-up: dose 3.2 mg/kg, route oral. Conditions: po.
Series [8] can be described thus: Elimination half-life after intravenous administration at a dose of 3.2 mg/kg in rat (n=3). Format: ADME, organism-based. Details: dose 3.2 mg/kg, route intravenous. Particulars: in vivo.
Series [9] is described as follows: Area Under Plasma concentration-time curve after peroral administration at a dose of 0.032 mg/kg in dog. Details: dose 0.032 mg/kg, route oral. Particulars: po. Format: ADME, organism-based, Canis lupus familiaris.
Series [10] can be described thus: Area under plasma concentration-time curve after peroral administration at a dose of 3.2 mg/kg in rat (n=3). Details: dose 3.2 mg/kg, route oral. Format: ADME, organism-based. Conditions: po.
Series [11] in a line: Total body clearance of drug from the plasma after intravenous administration at 0.032 mg/kg in dog. Format: ADME, organism-based, Canis lupus familiaris. Details: dose 0.032 mg/kg, route intravenous. Conditions: read-out: CLtot.
The nature of series [12]: Elimination half-life after intravenous administration at a dose of 0.032 mg/kg in dog. Format: ADME, organism-based, Canis lupus familiaris. Details: dose 0.032 mg/kg, route intravenous. Particulars: in vivo.

A word on the IC50: it is the concentration needed to halve the response being measured. `CCC/C(CC1CCc2c(cccc2OCC(=O)O)C1)=N\OC(c1ccccc1)c1ccccc1` (configuration not stated) [AP-227] registered an IC50 in [1] of 0.15 µM.

`O=C(O)COc1cccc2c1CCC[C@@H]2N1CCC[C@@H]1c1nc(-c2ccccc2)c(-c2ccccc2)o1`: the IC50 in the series listed under Rattus norvegicus was over 10 µM; in series [1], 0.87 µM.

`O=C(O)COc1cccc2c1CCC[C@H]2NCc1nc(-c2ccccc2)c(-c2ccccc2)o1`: the IC50 stood at 5 µM in the series listed under Rattus norvegicus and 0.19 µM in series [1].

Consider `O=C(O)COc1cccc2c1CCCC2CCc1nc(-c2ccccc2)c(-c2ccccc2)o1` (configuration not stated), for which the IC50 in the series filed under Rattus norvegicus is over 10 µM; in series [1] it was 1 µM.

`CC#CCC(C)[C@H](O)/C=C/[C@@H]1[C@H]2C/C(=C/CCCC(=O)O)C[C@H]2C[C@H]1O` (some centres not stated) [ILOPROST] yielded an IC50 in [1] of 0.0025 µM.

In the case of `O=C(O)COc1cccc2c1CCC[C@H]2OCc1nc(-c2ccccc2)c(-c2ccccc2)o1`, in series [1], the IC50 is 0.14 µM.

Take `O=C(O)COc1cccc2c1CCC[C@@H]2N1CCC[C@H]1c1nc(-c2ccccc2)c(-c2ccccc2)o1`: the IC50 in the series filed under Rattus norvegicus was determined as 2.2 µM; in series [1] it was 0.063 µM.

Turning to `O=C(O)COc1cccc2c1CCC[C@@H]2OCc1nc(-c2ccccc2)c(-c2ccccc2)o1`, the IC50 in series [1] is 1.4 µM.

For `O=C(O)COc1cccc2c1CCC[C@H]2N1CCC[C@H]1c1nc(-c2ccccc2)c(-c2ccccc2)o1`, the results for the IC50 (in the series filed under Rattus norvegicus; in series [1]) were over 10 µM and 0.64 µM, respectively.

One may read the Cmax as the peak of the concentration-time curve. What is called half-life is the time needed for the level to fall by half in the phase considered. As a reminder, the AUC is the area under the concentration-time curve, a measure of exposure. With `O=C([O-])COc1cccc2c1CCC[C@H]2N1CCC[C@@H]1c1nc(-c2ccccc2)c(-c2ccccc2)o1.[Na+]`, the bioavailability in series [2] was 66%; in [6] it was 31%. Further, the Cmax in series [3] worked out at 61.2 ng/mL; in [7], 187 ng/mL. Also, the IC50 in the series filed under Canis familiaris stood at 0.78 µM; in [4] it was 0.059 µM; in the series listed under Rattus norvegicus, 0.63 µM; in [1], 0.019 µM. Moreover, the clearance in series [5] turned out to be 89.2 mL/min/kg; in series [11] it was 1 mL/min/kg. Also, the half-life is 0.21 h in series [8] and 2.25 h in series [12]. Also, the AUC was 327 ng·h/mL in series [9] and 172 ng·h/mL in series [10].

Turning to `O=C(O)COc1cccc2c1CCC[C@@H]2NCc1nc(-c2ccccc2)c(-c2ccccc2)o1`, the IC50 in [1] came out at 1.5 µM.

As to `O=C(O)COc1cccc(C[C@@H]2CCCC=C2c2nc(-c3ccccc3)c(-c3ccccc3)o2)c1`, the IC50 in the series filed under Canis familiaris came out at 1.3 µM; in the series filed under Rattus norvegicus, 1.2 µM; in series [1] it was 0.06 µM.

Source of the values: ChEMBL document CHEMBL1140241, “Discovery of new diphenyloxazole derivatives containing a pyrrolidine ring: orally active prostacyclin mimetics. Part 2” (Bioorg Med Chem Lett, 2005).
